{
  "source": "PubChem BioAssay AID1745844",
  "about": "(Carcinogenic Potency Database (CPDB), 2022)",
  "test_system": "rodent lifetime carcinogenesis bioassay, tumor incidence TD50",
  "test": "carcinogenic potency in animals, long-term in vivo studies, CPDB compilation (AID 1745844)",
  "note": "Where “and” joins values, the source holds several entries; their conditions need not be identical. Equal entries are not always repeated. Calls of active or inactive are those of the source. The rule behind the calls is not given here.",
  "data": [
    {"compound": "CCNN", "values": [
      {"measurement": "TD50", "setting": "mouse, strain Swiss albino, females, in drinking water, site: blood vessels, lesion: angioma, dosed 82 weeks, study length 82 weeks", "result": 42.9, "unit": "mg/kg/day"},
      {"measurement": "TD50", "setting": "mouse, strain Swiss albino, females, in drinking water, site: blood vessels, lesion: angiosarcoma, dosed 82 weeks, study length 82 weeks", "result": 27.6, "unit": "mg/kg/day"},
      {"measurement": "TD50", "setting": "mouse, strain Swiss albino, females, in drinking water, site: blood vessels, lesion: several types, types named in the paper, dosed 82 weeks, study length 82 weeks", "result": 11.6, "unit": "mg/kg/day"},
      {"measurement": "TD50", "setting": "mouse, strain Swiss albino, females, in drinking water, site: liver, lesion: angioma, dosed 82 weeks, study length 82 weeks", "result": 42.9, "unit": "mg/kg/day"},
      {"measurement": "TD50", "setting": "mouse, strain Swiss albino, females, in drinking water, site: liver, lesion: angiosarcoma, dosed 82 weeks, study length 82 weeks", "result": 27.6, "unit": "mg/kg/day"},
      {"measurement": "TD50", "setting": "mouse, strain Swiss albino, females, in drinking water, site: liver, lesion: several types, types named in the paper, dosed 82 weeks, study length 82 weeks", "result": 13, "unit": "mg/kg/day"},
      {"measurement": "TD50", "setting": "mouse, strain Swiss albino, females, in drinking water, site: lung, lesion: adenocarcinoma, dosed 82 weeks, study length 82 weeks", "result": 14, "unit": "mg/kg/day"},
      {"measurement": "TD50", "setting": "mouse, strain Swiss albino, females, in drinking water, site: lung, lesion: adenoma, dosed 82 weeks, study length 82 weeks", "result": 5.62, "unit": "mg/kg/day"},
      {"measurement": "TD50", "setting": "mouse, strain Swiss albino, females, in drinking water, site: lung, lesion: several types, types named in the paper, dosed 82 weeks, study length 82 weeks", "result": 5.22, "unit": "mg/kg/day"},
      {"measurement": "TD50", "setting": "mouse, strain Swiss albino, males, in drinking water, site: blood vessels, lesion: angiosarcoma, dosed 72 weeks, study length 72 weeks", "result": 46.9, "unit": "mg/kg/day"},
      {"measurement": "TD50", "setting": "mouse, strain Swiss albino, males, in drinking water, site: blood vessels, lesion: several types, types named in the paper, dosed 72 weeks, study length 72 weeks", "result": 38.6, "unit": "mg/kg/day"},
      {"measurement": "TD50", "setting": "mouse, strain Swiss albino, males, in drinking water, site: liver, lesion: angiosarcoma, dosed 72 weeks, study length 72 weeks", "result": 46.9, "unit": "mg/kg/day"},
      {"measurement": "TD50", "setting": "mouse, strain Swiss albino, males, in drinking water, site: liver, lesion: several types, types named in the paper, dosed 72 weeks, study length 72 weeks", "result": 48.1, "unit": "mg/kg/day"},
      {"measurement": "TD50", "setting": "mouse, strain Swiss albino, males, in drinking water, site: lung, lesion: adenoma, dosed 72 weeks, study length 72 weeks", "result": 7.82, "unit": "mg/kg/day"},
      {"measurement": "TD50", "setting": "mouse, strain Swiss albino, males, in drinking water, site: lung, lesion: several types, types named in the paper, dosed 72 weeks, study length 72 weeks", "result": 8.81, "unit": "mg/kg/day"}
    ]},
    {"compound": "O=c1c(O)c(-c2ccc(O)c(O)c2)oc2cc(O)cc(O)c12", "values": [
      {"measurement": "carcinogen call", "setting": "hamster, strain Syrian Golden, females, in feed, site: forestomach, lesion: papilloma, dosed 50 weeks, study length 100 weeks", "result": "negative (inactive)"},
      {"measurement": "TD50", "setting": "hamster, strain Syrian Golden, females, in feed, site: forestomach, lesion: papilloma, dosed 101 weeks, study length 101 weeks", "result": "18900 mg/kg/day (inactive)"},
      {"measurement": "carcinogen call", "setting": "hamster, strain Syrian Golden, females, in feed, site: forestomach, lesion: papilloma, dosed 104 weeks, study length 104 weeks", "result": "negative (inactive)"},
      {"measurement": "TD50", "setting": "hamster, strain Syrian Golden, females, in feed, site: ileum, lesion: adenocarcinoma, dosed 104 weeks, study length 104 weeks", "result": "140000 mg/kg/day (inactive)"},
      {"measurement": "TD50", "setting": "hamster, strain Syrian Golden, females, in feed, site: uterus, lesion: leiomyoma, dosed 101 weeks, study length 101 weeks", "result": "39200 mg/kg/day (inactive)"},
      {"measurement": "carcinogen call", "setting": "hamster, strain Syrian Golden, males, in feed, site: adrenal gland, lesion: cortical adenoma, dosed 101 weeks, study length 101 weeks", "result": "negative (inactive)"},
      {"measurement": "carcinogen call", "setting": "hamster, strain Syrian Golden, males, in feed, site: adrenal gland, lesion: cortical adenoma, dosed 104 weeks, study length 104 weeks", "result": "negative (inactive)"},
      {"measurement": "TD50", "setting": "hamster, strain Syrian Golden, males, in feed, site: forestomach, lesion: papilloma, dosed 50 weeks, study length 100 weeks", "result": "1440 mg/kg/day (inactive)"},
      {"measurement": "carcinogen call", "setting": "hamster, strain Syrian Golden, males, in feed, site: forestomach, lesion: papilloma, dosed 101 weeks, study length 101 weeks", "result": "negative (inactive)"},
      {"measurement": "TD50", "setting": "hamster, strain Syrian Golden, males, in feed, site: forestomach, lesion: papilloma, dosed 104 weeks, study length 104 weeks", "result": "56700 mg/kg/day (inactive)"},
      {"measurement": "carcinogen call", "setting": "mouse, strain DDY, females, in feed, site: liver, lesion: one or several types, types not named, dosed 120 weeks, study length 120 weeks", "result": "negative (inactive)"},
      {"measurement": "TD50", "setting": "mouse, strain DDY, females, in feed, site: lung, lesion: several types, types named in the paper, dosed 120 weeks, study length 120 weeks", "result": "4240 mg/kg/day (inactive)"},
      {"measurement": "TD50", "setting": "mouse, strain DDY, males, in feed, site: heart, lesion: spindle-cell sarcoma, dosed 115 weeks, study length 115 weeks", "result": "73400 mg/kg/day (inactive)"},
      {"measurement": "TD50", "setting": "mouse, strain DDY, males, in feed, site: liver, lesion: several types, types named in the paper, dosed 115 weeks, study length 115 weeks", "result": "15100 mg/kg/day (inactive)"},
      {"measurement": "TD50", "setting": "mouse, strain DDY, males, in feed, site: lung, lesion: several types, types named in the paper, dosed 115 weeks, study length 115 weeks", "result": "5460 mg/kg/day (inactive)"},
      {"measurement": "carcinogen call", "setting": "rat, strain ACI, females, in feed, site: adrenal gland, lesion: cortical adenoma, dosed 77 weeks, study length 77 weeks", "result": "negative (inactive)"},
      {"measurement": "TD50", "setting": "rat, strain ACI, females, in feed, site: adrenal gland, lesion: cortical adenoma, dosed 121 weeks, study length 121 weeks", "result": "226000 mg/kg/day (inactive)"},
      {"measurement": "carcinogen call", "setting": "rat, strain ACI, females, in feed, site: pituitary gland, lesion: adenoma, dosed 77 weeks, study length 77 weeks", "result": "negative (inactive)"},
      {"measurement": "TD50", "setting": "rat, strain ACI, females, in feed, site: pituitary gland, lesion: adenoma, dosed 121 weeks, study length 121 weeks", "result": "461000 mg/kg/day (inactive)"},
      {"measurement": "TD50", "setting": "rat, strain ACI, females, in feed, site: thigh, lesion: sarcoma, dosed 121 weeks, study length 121 weeks", "result": "90400 mg/kg/day (inactive)"},
      {"measurement": "TD50", "setting": "rat, strain ACI, males, in feed, site: adrenal gland, lesion: pheochromocytoma, dosed 77 weeks, study length 77 weeks", "result": "7130 mg/kg/day (inactive)"},
      {"measurement": "TD50", "setting": "rat, strain ACI, males, in feed, site: cecum, lesion: adenocarcinoma, dosed 121 weeks, study length 121 weeks", "result": "35200 mg/kg/day (inactive)"},
      {"measurement": "TD50", "setting": "rat, strain ACI, males, in feed, site: cecum, lesion: adenoma, dosed 77 weeks, study length 77 weeks", "result": "7130 mg/kg/day (inactive)"},
      {"measurement": "TD50", "setting": "rat, strain ACI, males, in feed, site: cecum, lesion: adenoma, dosed 121 weeks, study length 121 weeks", "result": "72300 mg/kg/day (inactive)"},
      {"measurement": "TD50", "setting": "rat, strain ACI, males, in feed, site: pancreas, lesion: exocrine adenoma, dosed 121 weeks, study length 121 weeks", "result": "72300 mg/kg/day (inactive)"},
      {"measurement": "TD50", "setting": "rat, strain ACI, males, in feed, site: testis, lesion: interstitial-cell tumor, dosed 77 weeks, study length 77 weeks", "result": "2290 mg/kg/day (inactive)"},
      {"measurement": "TD50", "setting": "rat, strain F344/DuCrj, females, in feed, site: all sites, lesion: lymphoma and leukemia, combined, dosed 104 weeks, study length 112 weeks", "result": "7860 mg/kg/day (inactive)"},
      {"measurement": "carcinogen call", "setting": "rat, strain F344/DuCrj, females, in feed, site: liver, lesion: hyperplastic nodule, dosed 104 weeks, study length 112 weeks", "result": "negative (inactive)"},
      {"measurement": "TD50", "setting": "rat, strain F344/DuCrj, females, in feed, site: uterus, lesion: endometrial stromal polyp, dosed 104 weeks, study length 112 weeks", "result": "19300 mg/kg/day (inactive)"},
      {"measurement": "TD50", "setting": "rat, strain F344/DuCrj, males, in feed, site: all sites, lesion: lymphoma and leukemia, combined, dosed 104 weeks, study length 112 weeks", "result": "1160 mg/kg/day (inactive)"},
      {"measurement": "TD50", "setting": "rat, strain F344/DuCrj, males, in feed, site: liver, lesion: hyperplastic nodule, dosed 104 weeks, study length 112 weeks", "result": "66800 mg/kg/day (inactive)"},
      {"measurement": "TD50", "setting": "rat, strain Fischer 344, females, in feed, site: adrenal gland, lesion: cortical adenoma, dosed 77 weeks, study length 77 weeks", "result": "118 mg/kg/day (inactive)"},
      {"measurement": "carcinogen call", "setting": "rat, strain Fischer 344, females, in feed, site: any site (literature study), lesion: several types, types named in the paper, dosed 64 weeks, study length 64 weeks", "result": "negative (inactive)"},
      {"measurement": "TD50", "setting": "rat, strain Fischer 344, females, in feed, site: liver, lesion: hepatocellular adenoma + hepatocellular carcinoma + neoplastic nodule, dosed 103 weeks, study length 103 weeks", "result": 75700, "unit": "mg/kg/day"},
      {"measurement": "TD50", "setting": "rat, strain Fischer 344, females, in feed, site: tongue, lesion: squamous-cell carcinoma, dosed 103 weeks, study length 103 weeks", "result": "36500 mg/kg/day (inactive)"},
      {"measurement": "carcinogen call", "setting": "rat, strain Fischer 344, males, in feed, site: any site (literature study), lesion: several types, types named in the paper, dosed 64 weeks, study length 64 weeks", "result": "negative (inactive)"},
      {"measurement": "carcinogen call", "setting": "rat, strain Fischer 344, males, in feed, site: any site (literature study), lesion: several types, types named in the paper, dosed 77 weeks, study length 77 weeks", "result": "negative (inactive)"},
      {"measurement": "TD50", "setting": "rat, strain Fischer 344, males, in feed, site: kidney, lesion: tubule adenoma + tubular-cell adenocarcinoma, dosed 103 weeks, study length 103 weeks", "result": "8990 mg/kg/day and 5250 mg/kg/day"},
      {"measurement": "TD50", "setting": "rat, strain Fischer 344, males, in feed, site: kidney, lesion: tubule adenoma, dosed 103 weeks, study length 103 weeks", "result": "12500 mg/kg/day and 6030 mg/kg/day"},
      {"measurement": "TD50", "setting": "rat, strain Norwegian albino, females, in feed, site: ileum, lesion: adenocarcinoma, dosed 58 weeks, study length 58 weeks", "result": 15.4, "unit": "mg/kg/day"},
      {"measurement": "TD50", "setting": "rat, strain Norwegian albino, females, in feed, site: ileum, lesion: several types, types named in the paper, dosed 58 weeks, study length 58 weeks", "result": 5.12, "unit": "mg/kg/day"},
      {"measurement": "TD50", "setting": "rat, strain Norwegian albino, females, in feed, site: urinary bladder, lesion: several types, types named in the paper, dosed 58 weeks, study length 58 weeks", "result": 51.3, "unit": "mg/kg/day"},
      {"measurement": "carcinogen call", "setting": "rat, strain Norwegian albino, males, in feed, site: ileum, lesion: several types, types named in the paper, dosed 58 weeks, study length 58 weeks", "result": "positive"},
      {"measurement": "TD50", "setting": "rat, strain Norwegian albino, males, in feed, site: urinary bladder, lesion: transitional-cell carcinoma, dosed 58 weeks, study length 58 weeks", "result": 21, "unit": "mg/kg/day"}
    ]}
  ]
}
